Results from patent publication US20110028444A1, “PHARMACEUTICALLY ACCEPTABLE SALTS OF ANTI-INFECTION QUINOLONE COMPOUNDS” (priority 2008, published 2011).
Converted amounts (≈) assume the structure as drawn. Like-named read-outs stand apart in the source and are kept apart here.

What was measured:
Pseudomonas aeruginosa = assay: In-vitro antibacterial test, agar dilution MIC; type: cell-based; details: for MIC: Pseudomonas aeruginosa, read-out: In-vitro MIC
Text: (§4) The test bacterial strains were the standard quality control test strains of Klebsiella pneumoniae strains (Strains No. CMCC 46114-8), Pseudomonas aeruginosa (Strains No. ATCC 27853), Escherichia coli (Strains No. ATCC25922), and Staphylococcus aureus cocci (Strains No. ATCC25925). Other bacteria included those isolated from sputum, throat swab or urine of patients with acute bacterial respiratory tract infection or urinary tract infection and identified by the hospitals.
(§5) HCl levofloxacin injection and NaCl ciprofloxacin lactate injection were diluted with sterilized distilled water to a concentration of 1920 μg/mL.

Staphylococcus aureus = assay: In-vitro antibacterial test, agar dilution MIC; type: cell-based; details: for MIC: Staphylococcus aureus, read-out: In-vitro MIC
Text: as §4, §5

Streptococcus pneumoniae = assay: In-vitro antibacterial test, agar dilution MIC; type: cell-based; details: for MIC: Streptococcus pneumoniae, read-out: In-vitro MIC
Method: (§1) Test method: the agar dilution method was used for the minimum inhibitory concentration (MIC) determination. The antibacterial chemicals were mixed with given amounts of agar in various concentrations and the mixtures were made into solid plates. Each plate had the antibacterial concentration two times higher than the next plate. Bacteria species were then added to the surface of the plates, cultured, and observed for their growth.
(§2) Other bacteria included those isolated from sputum, throat swab or urine of patients with acute bacterial respiratory tract infection or urinary tract infection and identified by the hospitals.
(§3) (S)-6-fluoro-1-methyl-4-oxo-7-(1-piperazinyl)-1H,4H-[1,3]thiazeto[3,2-a]quino line-3-carboxylic acid lactate and other test samples, equivalent to 96 mg of ulifloxacin, were dissolved in sterilized distilled water to make up 50 mL of each solution.

Escherichia coli = assay: In-vitro antibacterial test, agar dilution MIC; type: cell-based; details: for MIC: Escherichia coli, read-out: In-vitro MIC
Text: as §4, §5

Enterobacter cloacae = assay: In-vitro antibacterial test, agar dilution MIC; type: cell-based; details: read-out: In-vitro MIC
Text: as §4, §5

[1] = system: Klebsiella pneumoniae, Pseudomonas aeruginosa, Staphylococcus aureus, Escherichia coli, Enterococcus faecalis, Streptococcus pneumoniae, Enterobacter cloacae …; assay: In-vitro antibacterial tests, summary over the tested bacteria; type: cell-based; details: for antibacterial activity (in words): against the eight tested bacteria; for antibacterial activities compared with compounds 7 and 8: against the above four bacteria, concentrations calculated as equivalents to NM394
Method: as §1, §2, §3

[2] = Solubility test: maximum solubility in water; type: physicochemical; details: thermodynamic from solid
Method: Three lots of mesylates and three lots of lactates, respectively, were subjected to preliminary tests for maximum solubility in water. At ambient temperature (25° C.), 0.2 g of sample was dissolved in 1 mL of water. To the solution was added 0.1 g of the sample each time until the sample could no longer be dissolved. The amount of sample dissolved was the maximum solubility.

Enterococcus faecalis = assay: In-vitro antibacterial test, agar dilution MIC; type: cell-based; details: read-out: In-vitro MIC
Text: as §4, §5

[3] = system: New Zealand rabbit ear vein and surrounding tissues; assay: Vascular irritation tests; type: in vivo, New Zealand rabbits; details: vein injection once a day for 3 days, high and low doses
Text: Sixteen New Zealand rabbits were divided into 4 groups: a control group and three treatment groups for compounds 4, 5, and 6, respectively; each group had 4 rabbits. The rabbits of the treatment groups were vein-injected on their left ears with high doses of the test samples and on their right ears with low doses of the test samples. The rabbits of the control group were rein-injected on their both left and right ears with sodium chloride solution. The injections continued for 3 days, once a day. Two rabbits from each group were anatomized after 24 hours of each injection.

Klebsiella pneumoniae = assay: In-vitro antibacterial test, agar dilution MIC; type: cell-based; details: for MIC: Klebsiella pneumoniae
Text: as §4, §5

Vibrio cholerae = assay: In-vitro antibacterial test, agar dilution MIC; type: cell-based; details: for In-vitro MIC: agar dilution; for MIC: Vibrio cholerae, read-out: In-vitro MIC
Text: as §4, §5

[4] = maximum solubility in water, ambient temperature (25° C.), average of two tests, preliminary, read-out: Water Solubility
[5] = high dose group (60 mg/kg·bw), after 28 days, tissue microscopy

Method for SD rats: The dose without toxic reaction was thereby determined and the long term toxicity to SD rats was tested. One hundred forty SD rats were randomly divided into 7 groups depending on their body weight and sex; each group had 20 rats with 10 males and 10 females. […] The rats were administrated by intravenous injection, once a day for consecutive 4 weeks. The recovery was monitored for 2 weeks after treatment.
Drug preparation: the drugs were dissolved with a saline solution to the desired concentration before administration. Administration: intravenous injection. Delivery period: 28 days continuously. Observation and inspection: Observation and inspection projects, targets and time: including the general state of observation (7), hematologic (16), biochemical blood test (18), urine (10) and pathological examination.
General observation: the appearance of signs, behavior, glands, respiratory and stool, daily observation and timely recording, discovering dead or dying animals, timely anatomical examination, food intake, and body weight once weekly.
Blood tests: abdominal aortic blood for hematology testing, in the 16 testing indicators, leukocyte classification using whole blood smear, Wright stain staining; prothrombin time (PT) with a 0.109 mmol/L of citrate Citrus medica sodium (with blood volume ratio of 1:9) anticoagulant, 3000 r/min centrifugal 10 min, taking with BE Thromotimer plasma coagulation analyzer (Germany) determination; other indicators to EDTA anticoagulant, using SWELAB AC920EO automated hematology analyzer (Sweden).
Biochemical blood tests: blood sampling method same as above, blood serum obtained by 3000 r/min centrifugal 10 min. In the 21 indicators, the Na+, K+, Cl^− were determined using EasyLyte Plus Na/K/Cl analyzer (USA), the other indexes of blood were determined using a Hitachi 7020 automatic biochemical analyzer (Japan) determination.
Urine tests: 16 h urine collection, using [sequence] 100 urine analyzer.
Pathology: after anesthesia, the animal was killed by blood letting of the abdominal aorta. System anatomy and visual observation of changes in various organs were performed; and organ weights were determined. Tissue was fixed in 10% neutral formalin; plates were made by conventional paraffin producers, HE staining, and light microscopy.
Statistical analysis: In the different groups, the body weight, hematology, blood chemistry, urine measurements, organ weights, organ coefficient were calculated for the mean±standard deviation and t-test comparison between groups. Pathological abnormalities according to their incidence and severity were compared between groups.

C[C@@H]1Sc2c(C(=O)O)c(=O)c3cc(F)c(N4CCNCC4)cc3n21 [Compound 2, (S)-6-fluoro-1-methyl-4-oxo-7-(1-piperazinyl)-1H,4H-[1,3]thiazeto[3,2-a]quinoline-3-carboxylic acid]
MIC (Pseudomonas aeruginosa; agar dilution): 0.177 µg/mL (≈ 0.507 µM)
MIC (Staphylococcus aureus; agar dilution): 0.177 µg/mL (≈ 0.507 µM)
MIC (Streptococcus pneumoniae; agar dilution): 0.025 µg/mL (≈ 0.0716 µM)
MIC (Escherichia coli; agar dilution): 0.0125 µg/mL (≈ 0.0358 µM)
MIC (Enterobacter cloacae; agar dilution): 0.5 µg/mL (≈ 1.43 µM)
antibacterial activity relative to R-ulifloxacin [1]: 3 to 10 times
antibacterial activity relative to racemic ulifloxacin [1]: two or more times
antibacterial activity (in words) [1]: relatively strong antibacterial activity

(S)-6-fluoro-1-methyl-4-oxo-7-(1-piperazinyl)-1H,4H-[1,3]thiazeto[3,2-a]quinoline-3-carboxylic acid aspartate [Compound 7]
In-vitro MIC (Pseudomonas aeruginosa; agar dilution): 0.25 µg/mL
In-vitro MIC (Staphylococcus aureus; agar dilution): 0.25 µg/mL
In-vitro MIC (Escherichia coli; agar dilution): 0.02 µg/mL
antibacterial activity (in words) [1]: relatively strong antibacterial activity

CC(O)C(=O)O.C[C@@H]1Sc2c(C(=O)O)c(=O)c3cc(F)c(N4CCNCC4)cc3n21 [Compound 4, (S)-6-fluoro-1-methyl-4-oxo-7-(1-piperazinyl)-1H,4H-[1,3]thiazeto[3,2-a]quinoline-3-carboxylic acid lactate]
solubility [2, 4]: 70 mg/mL
MIC (Pseudomonas aeruginosa): 0.25 µg/mL
MIC (Staphylococcus aureus): 0.125 µg/mL
MIC (Enterococcus faecalis; agar dilution): 0.5 µg/mL
MIC (Streptococcus pneumoniae): 0.02 µg/mL
MIC (Escherichia coli): 0.01 µg/mL
MIC (Enterobacter cloacae; agar dilution): 0.5 µg/mL
antibacterial activities compared with compounds 7 and 8 [1]: slightly stronger
antibacterial activity (in words) [1]: relatively strong antibacterial activity
irritation to ear vein and surrounding tissues [3]: no irritation
NOAEL (no observed adverse effect level) (SD rats; SD rats, 28 days continuous intravenous administration, calculated based on NM394): 30 mg/kg·bw
targeted organ of toxicity (SD rats; SD rats, intravenous): the kidney
rats with crystals in renal tubules (SD rats; [5]): 3
rats with kidney protein casts (SD rats; [5]): one
rats with mild cortical tubular dilatation (SD rats; [5]): 3
rats with mild interstitial inflammatory cell infiltration (SD rats; high dose group (60 mg/kg·bw), tissue microscopy): 1

CC(O)C(=O)O.C[C@H]1Sc2c(C(=O)O)c(=O)c3cc(F)c(N4CCNCC4)cc3n21 [Compound 13, (R)-6-fluoro-1-methyl-4-oxo-7-(1-piperazinyl)-1H,4H-[1,3]thiazeto[3,2-a]quinoline-3-carboxylic acid lactate]
solubility [2, 4]: 116 mg/mL
MIC (Pseudomonas aeruginosa): 1 µg/mL
MIC (Staphylococcus aureus): 1 µg/mL
MIC (Enterococcus faecalis; agar dilution): 4 µg/mL
MIC (Streptococcus pneumoniae): 0.125 µg/mL
MIC (Escherichia coli): 0.25 µg/mL

(S)-6-fluoro-1-methyl-4-oxo-7-(1-piperazinyl)-1H,4H-[1,3]thiazeto[3,2-a]quinoline-3-carboxylic acid glutamate [Compound 8]
In-vitro MIC (Staphylococcus aureus; agar dilution): 0.25 µg/mL
In-vitro MIC (Streptococcus pneumoniae; agar dilution): 0.125 µg/mL
In-vitro MIC (Escherichia coli; agar dilution): 0.01 µg/mL
antibacterial activity (in words) [1]: relatively strong antibacterial activity

(±)-6-fluoro-1-methyl-4-oxo-7-(1-piperazinyl)-1H,4H-[1,3]thiazeto[3,2-a]quinoline-3-carboxylic acid glutamate [Ulifloxaci glutamate (±), reference compound]
In-vitro MIC (Staphylococcus aureus; agar dilution): 0.5 µg/mL
In-vitro MIC (Streptococcus pneumoniae; agar dilution): 0.2 µg/mL
In-vitro MIC (Escherichia coli; agar dilution): 0.125 µg/mL

C[C@H]1Sc2c(C(=O)O)c(=O)c3cc(F)c(N4CCNCC4)cc3n21 [Compound 3, (R)-6-fluoro-1-methyl-4-oxo-7-(1-piperazinyl)-1H,4H-[1,3]thiazeto[3,2-a]quinoline-3-carboxylic acid]
MIC (Pseudomonas aeruginosa; agar dilution): 2 µg/mL (≈ 5.72 µM)
MIC (Staphylococcus aureus; agar dilution): 2.83 µg/mL (≈ 8.09 µM)
MIC (Streptococcus pneumoniae; agar dilution): 0.25 µg/mL (≈ 0.716 µM)
MIC (Escherichia coli; agar dilution): 0.225 µg/mL (≈ 0.644 µM)
MIC (Enterobacter cloacae; agar dilution): 4 µg/mL (≈ 11.4 µM)

(R)-6-fluoro-1-methyl-4-oxo-7-(1-piperazinyl)-1H,4H-[1,3]thiazeto[3,2-a]quinoline-3-carboxylic acid gluconate [Compound 10]
In-vitro MIC (Pseudomonas aeruginosa; agar dilution): 1 µg/mL
In-vitro MIC (Staphylococcus aureus; agar dilution): 1 µg/mL
In-vitro MIC (Escherichia coli; agar dilution): 0.25 µg/mL
In-vitro MIC (Klebsiella pneumoniae): 0.5 µg/mL
In-vitro MIC (Vibrio cholerae): 2 µg/mL

CS(=O)(=O)O.C[C@H]1Sc2c(C(=O)O)c(=O)c3cc(F)c(N4CCNCC4)cc3n21 [Compound 9, (R)-6-fluoro-1-methyl-4-oxo-7-(1-piperazinyl)-1H,4H-[1,3]thiazeto[3,2-a]quinoline-3-carboxylic acid mesylate]
solubility ([2]; 25 °C, water): 501 mg/mL
MIC (Pseudomonas aeruginosa): 1 µg/mL
MIC (Staphylococcus aureus; agar dilution): 2 µg/mL
MIC (Enterococcus faecalis): 4 µg/mL
MIC (Streptococcus pneumoniae): 0.125 µg/mL
MIC (Klebsiella pneumoniae): 0.5 µg/mL
MIC (Enterobacter cloacae; agar dilution): 4 µg/mL
MIC (Vibrio cholerae): 2 µg/mL

(S)-6-fluoro-1-methyl-4-oxo-7-(1-piperazinyl)-1H,4H-[1,3]thiazeto[3,2-a]quinoline-3-carboxylic acid gluconate [Compound 6]
In-vitro MIC (Pseudomonas aeruginosa; agar dilution): 0.25 µg/mL
In-vitro MIC (Staphylococcus aureus; agar dilution): 0.25 µg/mL
In-vitro MIC (Escherichia coli; agar dilution): 0.01 µg/mL
In-vitro MIC (Klebsiella pneumoniae): 0.02 µg/mL
In-vitro MIC (Vibrio cholerae): 0.02 µg/mL
antibacterial activities compared with compounds 7 and 8 [1]: slightly stronger
antibacterial activity (in words) [1]: relatively strong antibacterial activity
irritation to ear vein and surrounding tissues [3]: no irritation

C[C@H]1COc2c(N3CCN(C)CC3)c(F)cc3c(=O)c(C(=O)O)cn1c23 [Levofloxacin, reference compound]
MIC (Pseudomonas aeruginosa; agar dilution): 2 µg/mL (≈ 5.53 µM)
MIC (Staphylococcus aureus; agar dilution): 0.5 µg/mL (≈ 1.38 µM)
MIC (Escherichia coli; agar dilution): 0.0313 µg/mL (≈ 0.0866 µM)
MIC (Klebsiella pneumoniae): 0.0125 µg/mL (≈ 0.0346 µM)

(±)-6-fluoro-1-methyl-4-oxo-7-(1-piperazinyl)-1H,4H-[1,3]thiazeto[3,2-a]quinoline-3-carboxylic acid gluconate [Ulifloxaci gluconate (±), reference compound]
In-vitro MIC (Pseudomonas aeruginosa; agar dilution): 0.5 µg/mL
In-vitro MIC (Staphylococcus aureus; agar dilution): 0.5 µg/mL
In-vitro MIC (Escherichia coli; agar dilution): 0.05 µg/mL
In-vitro MIC (Klebsiella pneumoniae): 0.2 µg/mL
In-vitro MIC (Vibrio cholerae): 0.5 µg/mL

O=C(O)c1cn(C2CC2)c2cc(N3CCNCC3)c(F)cc2c1=O [Ciprofloxacin, reference compound]
MIC (Pseudomonas aeruginosa; agar dilution): 0.5 µg/mL (≈ 1.51 µM)
MIC (Staphylococcus aureus; agar dilution): 0.5 to 1 µg/mL (≈ 1.51 to 3.02 µM)
MIC (Escherichia coli; agar dilution): 0.0313 µg/mL (≈ 0.0945 µM)
MIC (Klebsiella pneumoniae): 0.0313 to 0.0625 µg/mL (≈ 0.0945 to 0.189 µM)

CC(O)C(=O)O.CC1Sc2c(C(=O)O)c(=O)c3cc(F)c(N4CCNCC4)cc3n21 (racemic) [Ulifloxaci lactate (±), (±)-6-fluoro-1-methyl-4-oxo-7-(1-piperazinyl)-1H,4H-[1,3]thiazeto[3,2-a]quinoline-3-carboxylic acid lactate, reference compound]
solubility [2, 4]: 106 mg/mL
MIC (Staphylococcus aureus): 0.25 µg/mL
MIC (Enterococcus faecalis; agar dilution): 2 µg/mL
MIC (Streptococcus pneumoniae): 0.1 µg/mL
MIC (Escherichia coli): 0.125 µg/mL
MIC (Enterobacter cloacae): 1.25 µg/mL

(R)-6-fluoro-1-methyl-4-oxo-7-(1-piperazinyl)-1H,4H-[1,3]thiazeto[3,2-a]quinoline-3-carboxylic acid aspartate [Compound 11]
In-vitro MIC (Pseudomonas aeruginosa; agar dilution): 1 µg/mL
In-vitro MIC (Staphylococcus aureus; agar dilution): 2 µg/mL
In-vitro MIC (Escherichia coli; agar dilution): 0.25 µg/mL

(R)-6-fluoro-1-methyl-4-oxo-7-(1-piperazinyl)-1H,4H-[1,3]thiazeto[3,2-a]quinoline-3-carboxylic acid glutamate [Compound 12]
In-vitro MIC (Staphylococcus aureus; agar dilution): 2 µg/mL
In-vitro MIC (Streptococcus pneumoniae; agar dilution): 0.5 µg/mL
In-vitro MIC (Escherichia coli; agar dilution): 0.5 µg/mL

(±)-6-fluoro-1-methyl-4-oxo-7-(1-piperazinyl)-1H,4H-[1,3]thiazeto[3,2-a]quino line-3-carboxylic acid aspartate [Ulifloxaci aspartate (±), reference compound]
In-vitro MIC (Pseudomonas aeruginosa; agar dilution): 0.5 µg/mL
In-vitro MIC (Staphylococcus aureus; agar dilution): 0.5 µg/mL
In-vitro MIC (Escherichia coli; agar dilution): 0.1 µg/mL

CC1Sc2c(C(=O)O)c(=O)c3cc(F)c(N4CCNCC4)cc3n21.CS(=O)(=O)O (racemic) [Ulifloxaci mesylate (±), (±)-6-fluoro-1-methyl-4-oxo-7-(1-piperazinyl)-1H,4H-[1,3]thiazeto[3,2-a]quinoline-3-carboxylic acid mesylate, reference compound]
solubility ([2]; 25 °C, water): 340 mg/mL
MIC (Staphylococcus aureus; agar dilution): 0.5 µg/mL
MIC (Enterococcus faecalis): 1.5 µg/mL
MIC (Streptococcus pneumoniae): 0.088 µg/mL
MIC (Escherichia coli): 0.063 µg/mL
MIC (Klebsiella pneumoniae): 0.2 µg/mL
MIC (Enterobacter cloacae; agar dilution): 1 µg/mL
MIC (Vibrio cholerae): 0.5 µg/mL
